Here are results for 15 molecules from US10646488B2 (Araxes Pharma LLC, priority 2016, dated 2020).

The target in one assay is T1, KRAS G12C 1-169, his-tagged protein, GDP-loaded (Homo sapiens, UniProt P01116, G12C).
T1 construct: KRAS G12C 1-169, his-tagged protein, GDP-loaded
The assay can be described thus: Covalent binding (% modification) to KRAS G12C by mass spectrometry. As to conditions: covalent binding to KRAS G12C after a ten minute incubation period. As for the experimental part: Test compounds were prepared as 10 mM stock solutions in DMSO (Fisher cat # BP-231-100). KRAS G12C 1-169, his-tagged protein, GDP-loaded was diluted to 2 μm in buffer (20 mM Hepes, 150 mM NaCl, 1 mM MgCl2). Compounds were tested for activity as follows:
Compounds were diluted to 50× final test concentration in DMSO in 96-well storage plates. Compound stock solutions were vortexed before use and observed carefully for any sign of precipitation. Dilutions were as follow: • For 100 μM final compound concentration, compounds were diluted to 5000 μM (5 μl 10 mM compound stock+5 μl DMSO and mixed well by pipetting. • For 30 μM final compound concentration, compounds were diluted to 1500 μM (3 μl 10 mM compound stock+17 μl DMSO) and mixed well by pipetting. • For 10 μM final compound concentration, compounds were diluted to 500 μM (2 μl 10 mM compound stock+38 μl DMSO) and mixed well by pipetting. 49 μl of the stock protein solution was added to each well of a 96-well PCR plate (Fisher cat #1423027). 1 μl of the diluted 50× compounds were added to appropriate wells in the PCR plate using 12-channel pipettor. Reactions were mixed carefully and thoroughly by pipetting up/down with a 200·1 multi-channel pipettor. […] 5 μl of 2% formic acid (Fisher cat # A117) in DI H2O was then added to each well followed by mixing with a pipette. The plate was then resealed with aluminum seal and stored on dry ice until analyzed as described below.
The above described assays were analyzed by mass spectrometry according to one of the following two procedures:
The MS instrument is set to positive polarity, 2 GHz resolution, and low mass (1700) mode and allowed to equilibrate for 30 minutes. The instrument is then calibrated, switched to acquisition mode and the appropriate method loaded.
After another 30 minute equilibration time, a blank batch (i.e., buffer) is run to ensure equipment is operating properly. The samples are thawed at 37° C. for 10 minutes, briefly centrifuged, and transfer to the bench top. Wells A1 and H12 are spiked with 1 uL 500 uM internal standard peptide, and the plates centrifuged at 2000×g for 5 minutes. The method is then run and masses of each individual well recorded.
The masses (for which integration data is desired) for each well are pasted into the platemap and exported from the analysis. Masses for the internal standards are exported as well. The data at 50 ppm is extracted for the +19 charge state, and identity of well A1 is assigned using the internal standard spike and integrated. Peak data is exported as a TOF list and the above steps are repeated individually, for the +20, 21, 22, 23, 24, and 25 charge states.
The masses and peak intensities of KRAS G12C protein species were measured using a Dionex RSLCnano system (Thermo Scientific) connected to a Q Exactive Plus mass spectrometer (Thermo Scientific).
[…] of sample was each loaded onto a Aeris™ 3.6 μm WIDEPORE C4 200 Å, LC Column 50×2.1 mm column maintained at 40° C. at a flow rate of 600 μl min^−1 with […] (0.1% formic acid in acetonitrile). The liquid chromatography conditions were 20% solvent B for 1 min, 20% to 60% solvent B for 1.5 min, 60% to 90% solvent for 0.5 min, 90% solvent B for 0.2 min, 90% to 20% solvent B for 0.2 min, and then equilibrated for 1.6 min before the following sample injection. The flow rate was maintained at 600 μl min^−1 throughout the sample analysis.
The mass spectrometer was operated in profile mode at a resolution of 17500, 5 microscans, using 50 msec max injection time and an AGC target of 1e6, and a full mass range from 800-1850 m/z was recorded. The HCD trapping gas was optimized for maximum sensitivity for intact proteins. The ionization method was electrospray ionization, which used a spray voltage of 4 kV, sheath gas flow set to 50 au, auxiliary gas flow set to 10 au and sweep gas flow set to 1 au. […]
For the molecule `C=CC(=O)N1[C@H](C)CN(c2nc(N)nc3c(F)c(-c4c(C)ccc5cn[nH]c45)c(Cl)cc23)C[C@@H]1C` [Compound 15, 1-((2S,6R)-4-(2-amino-6-chloro-8-fluoro-7-(6-methyl-1H-indazol-7-yl)quinazolin-4-yl)-2,6-dimethyl-piperazin-1-yl) prop-2-en-1-one], the Binding % result was “++ (++ indicates binding activity from 50 to 90%)”.
Same read-out and setting: to `C=CC(=O)N1CCN(c2nc(N3CC(N(C)C)C3)nc3c(F)c(-c4c(O)cccc4F)c(Cl)cc23)[C@@H](C)C1` (atropisomer, axis not shown) [Compound 59, 1-((S)-4-((R)-6-chloro-2-(3-(dimethylamino)azetidin-1-yl)-8-fluoro-7-(2-fluoro-6-hydroxyphenyl)quinazolin-4-yl)-3-methyl-piperazin-1-yl) prop-2-en-1-one] belongs “+ (+ indicates binding activity up to 50%)”; to `C=CC(=O)N1[C@H](C)CN(c2nc(OCCN3CC(F)(F)C3)nc3c(F)c(-c4c(O)cccc4F)c(Cl)cc23)C[C@@H]1C` [Compound 32, 1-((2R,6S)-4-(6-chloro-2-(2-(3,3-difluoroazetidin-1-yl)ethoxy)-8-fluoro-7-(2-fluoro-6-hydroxyphenyl)quinazolin-4-yl)-2,6-dimethyl-piperazin-1-yl) prop-2-en-1-one], “+++ (+++ indicates binding activity greater than 90%)”; to `C=CC(=O)N1C[C@@H](C)N(c2nc(N3CC(N(C)C)C3)nc3c(F)c(-c4c(O)cccc4F)c(Cl)cc23)[C@@H](C)C1` [Compound 21, 1-((3S,5R)-4-(6-chloro-2-(3-(dimethylamino)azetidin-1-yl)-8-fluoro-7-(2-fluoro-6-hydroxyphenyl)quinazolin-4-yl)-3,5-dimethyl-piperazin-1-yl) prop-2-en-1-one], “++ (++ indicates binding activity from 50 to 90%)”.
On the same count and under the same terms, for `C=CC(=O)N1C[C@H](C)N(c2nc(N3CC(N(C)C)C3)nc3c(F)c(-c4c(O)cccc4F)c(Cl)cc23)C[C@H]1C` [Compound 24, 1-((2R,5S)-4-(6-chloro-2-(3-(dimethylamino)azetidin-1-yl)-8-fluoro-7-(2-fluoro-6-hydroxyphenyl)quinazolin-4-yl)-2,5-dimethyl-piperazin-1-yl) prop-2-en-1-one] the value was “++ (++ indicates binding activity from 50 to 90%)”; for `C=CC(=O)N1CCN(c2nc(N)nc3c(F)c(-c4c(O)cccc4F)c(Cl)cc23)[C@@H](C)C1` [Compound 4, 1-((3S)-4-(2-amino-6-chloro-8-fluoro-7-(2-fluoro-6-hydroxyphenyl)quinazolin-4-yl)-3-methylpiperazin-1-yl)prop-2-en-1-one], “++ (++ indicates binding activity from 50 to 90%)”.

Staying with this assay, now noted: covalent binding to KRAS G12C after a three minute incubation period.
Turning to `C=CC(=O)N1C[C@H](C)N(c2nc(N3CC4(CCN(C5CC5)C4)C3)nc3c(F)c(-c4c(O)cccc4F)c(Cl)cc23)C[C@H]1C` [Compound 149, 1-((2R,5S)-4-(6-chloro-2-(6-cyclopropyl-2,6-diazaspiro[3.4]octan-2-yl)-8-fluoro-7-(2-fluoro-6-hydroxyphenyl)quinazolin-4-yl)-2,5-dimethyl-piperazin-1-yl) prop-2-en-1-one], the Binding % result is on record as “++ (++ indicates binding activity from 50 to 90%)”.
Regarding `C=CC(=O)N1C[C@H](C)N(c2nc(OCCN(CC)CC)nc3c(F)c(-c4c(C)ccc5cn[nH]c45)c(Cl)cc23)C[C@H]1C` (atropisomer, axis not shown) [Compound 156, 1-((2R,5S)-4-(6-chloro-2-(2-(diethylamino)ethoxy)-8-fluoro-7-((R)-6-methyl-1H-indazol-7-yl)quinazolin-4-yl)-2,5-dimethyl-piperazin-1-yl) prop-2-en-1-one], the Binding % result was “+++ (+++ indicates binding activity greater than 90%)”.
In the case of `C=CC(=O)N1C[C@H](C)N(c2nc(N3CC4(CCN(C5CC5)CC4)C3)nc3c(F)c(-c4c(O)cccc4F)c(Cl)cc23)C[C@H]1C` [Compound 173, 1-((2R,5S)-4-(6-chloro-2-(7-cyclopropyl-2,7-diazaspiro[3.5]nonan-2-yl)-8-fluoro-7-(2-fluoro-6-hydroxyphenyl)quinazolin-4-yl)-2,5-dimethyl-piperazin-1-yl) prop-2-en-1-one], the Binding % result is listed as “++ (++ indicates binding activity from 50 to 90%)”.
The same measure, in the same setting: to `C=CC(=O)N1C[C@H](C)N(c2nc(N3CC(N(C)C)C3)nc3c(F)c(-c4c(F)cccc4B4OC(C)(C)C(C)(C)O4)c(Cl)cc23)C[C@H]1C` [Compound 185, 1-((2R,5S)-4-(6-chloro-2-(3-(dimethylamino)azetidin-1-yl)-8-fluoro-7-(2-fluoro-6-(4,4,5,5-tetramethyl-1,3,2-dioxaborolan-2-yl)phenyl)quinazolin-4-yl)-2,5-dimethyl-piperazin-1-yl) prop-2-en-1-one] belongs “+ (+ indicates binding activity greater than 0% and up to 50%)”; to `[2H]C([2H])([2H])N(C1CN(c2nc(N3C[C@@H](C)N(C(=O)C=C)C[C@@H]3C)c3cc(Cl)c(-c4c(C)ccc5[nH]ncc45)c(F)c3n2)C1)C([2H])([2H])[2H]` (atropisomer, axis not shown) [Compound 226, 1-((2R,5S)-4-(6-chloro-2-(3-(bis(triduetero-methyl)amino)azetidin-1-yl)-8-fluoro-7-((R)-5-methyl-1H-indazol-4-yl)quinazolin-4-yl)-2,5-dimethyl-piperazin-1-yl) prop-2-en-1-one], “+++ (+++ indicates binding activity greater than 90%)”; to `C=CC(=O)N1CCN(c2nc(N3CC(C)(N(C)C)C3)nc3c(F)c(-c4c(C)ccc5[nH]ncc45)c(Cl)cc23)[C@@H](C)C1` [Compound 150, 1-((3S)-4-(6-chloro-2-(3-(dimethylamino)-3-methylazetidin-1-yl)-8-fluoro-7-(5-methyl-1H-indazol-4-yl)quinazolin-4-yl)-3-methyl-piperazin-1-yl) prop-2-en-1-one], “+++ (+++ indicates binding activity greater than 90%)”.
On the same count and under the same terms, for `C=CC(=O)N1C[C@H](C)N(c2nc(COCc3ncccc3F)nc3c(F)c(-c4c(C)ccc5[nH]ncc45)c(Cl)cc23)C[C@H]1C` [Compound 142, 1-((2R,5S)-4-(6-chloro-8-fluoro-2-(((3-fluoro-pyridin-2-yl)methoxy)methyl)-7-(5-methyl-1H-indazol-4-yl)quinazolin-4-yl)-2,5-dimethyl-piperazin-1-yl) prop-2-en-1-one] the value was “++ (++ indicates binding activity from 50 to 90%)”; for `C=CC(=O)N1C[C@H](C)N(c2nc(N3CC(N(C)C)C3)nc3c(F)c(-c4cc(O)cc5ccccc45)c(Cl)cc23)C[C@H]1C` [Compound 147, 1-((2R,5S)-4-(6-chloro-2-(3-(dimethylamino)azetidin-1-yl)-8-fluoro-7-(3-hydroxynaphthalen-1-yl)quinazolin-4-yl)-2,5-dimethyl-piperazin-1-yl) prop-2-en-1-one], “+++ (+++ indicates binding activity greater than 90%)”.
Same read-out and setting: to `C=CC(=O)N1C[C@H](C)N(c2nc(OCCN3CCC(F)(F)C3)nc3c(F)c(-c4cc(O)cc5ccccc45)c(Cl)cc23)C[C@H]1C` [Compound 201, 1-((2R,5S)-4-(6-chloro-2-(2-(3,3-difluoropyrrolidin-1-yl)ethoxy)-8-fluoro-7-(3-hydroxynaphthalen-1-yl)quinazolin-4-yl)-2,5-dimethyl-piperazin-1-yl) prop-2-en-1-one] belongs “++ (++ indicates binding activity from 50 to 90%)”.
